Measurements as given in US9682995B2, “Amino-substituted isothiazoles” (BAYER PHARMA AKTIENGESELLSCHAFT, priority 2013, dated 2017).

Tests used:
human kinase Mps-1 = human kinase Mps-1 (Homo sapiens (Human), UniProt P33981); test: Mps-1 kinase assay (TR-FRET); type: biochemical; conditions: 10 μM ATP; read-out: Mps1 avg (IC50 [mol/l])
Experimental: The human kinase Mps-1 phosphorylates a biotinylated substrate peptide. Detection of the phosphorylated product is achieved by time-resolved fluorescence resonance energy transfer (TR-FRET) from Europium-labelled anti-phospho-Serine/Threonine antibody as donor to streptavidin labelled with cross-linked allophycocyanin (SA-XLent) as acceptor. Compounds are tested for their inhibition of the kinase activity.
N-terminally GST-tagged human full length recombinant Mps-1 kinase (purchased from Invitrogen, Karslruhe, Germany, cat. no PV4071) was used. As substrate for the kinase reaction a biotinylated peptide of the amino-acid sequence biotin-Ahx-PWDPDDADITEILG (C-terminus in amide form, purchased from Biosyntan GmbH, Berlin) was used.
For the assay 50 nl of a 100-fold concentrated solution of the test compound in DMSO was pipetted into a black low volume 384 well microtiter plate (Greiner Bio-One, Frickenhausen, Germany), 2 μl of a solution of Mps-1 in assay buffer [0.1 mM sodium-ortho-vanadate, 10 mM MgCl2, 2 mM DTT, 25 mM Hepes pH 7.7, 0.05% BSA (w/v), 0.001% Pluronic F-127] were added and the mixture was incubated for 15 min at 22° C. to allow pre-binding of the test compounds to Mps-1 before the start of the kinase reaction. Then the kinase reaction was started by the addition of 3 μl of a solution of 16.7 μM adenosine-tri-phosphate (ATP, 16.7 μM=>final conc. in the 5 μl assay volume is 10 μM) and peptide substrate (1.67 μM=>final conc. in the 5 μl assay volume is 1 μM) in assay buffer and the resulting mixture was incubated for a reaction time of 60 min at 22° C. The concentration of Mps-1 in the assay was adjusted to the activity of the enzyme lot and was chosen appropriate to have the assay in the linear range, typical enzyme concentrations were in the range of about 0.5 nM (final conc. in the 5 μl assay volume). The reaction was stopped by the addition of 5 μl of a solution of TR-FRET detection reagents (100 mM Hepes pH 7.4, 0.1% BSA, 40 mM EDTA, 140 nM Streptavidin-XLent [#61GSTXLB, Fa. Cis Biointernational, Marcoule, France], 1.5 nM anti-phospho(Ser/Thr)-Europium-antibody [#AD0180, PerkinElmer LAS, Rodgau-Jugesheim, Germany]. Instead of the 1.5 nM anti-phospho(Ser/Thr)-Europium-antibody a mixture of 2 nM unlabeled anti-phospho ser/thr-pro antibody MPM-2 [Millipore cat. #05-368] and 1 nM LANCE EU-W1024 labeled anti-mouse IgG antibody [Perkin-Elmer, product no. AD0077] can be used).
The resulting mixture was incubated 1 h at 22° C. to allow the binding of the phosphorylated peptide to the anti-phospho(Ser/Thr)-Europium-antibody. Subsequently the amount of phosphorylated substrate was evaluated by measurement of the resonance energy transfer from the Europium-labelled anti-phospho(Ser/Thr) antibody to the Streptavidin-XLent. Therefore, the fluorescence emissions at 620 nm and 665 nm after excitation at 350 nm was measured in a Viewlux TR-FRET reader (PerkinElmer LAS, Rodgau-Jugesheim, Germany). The “blank-corrected normalized ratio” (a Viewlux specific readout, similar to the traditional ratio of the emissions at 665 nm and at 622 nm, in which blank and Eu-donor crosstalk are subtracted from the 665 nm signal before the ratio is calculated) was taken as the measure for the amount of phosphorylated substrate. The data were normalised (enzyme reaction without inhibitor=0% inhibition, all other assay components but no enzyme=100% inhibition).

human Bub1 = human Bub1 (Homo sapiens (Human), UniProt O43683); test: Bub1 kinase assay (TR-FRET); type: biochemical; conditions: 10 μM ATP; read-out: Bub1 avg (IC50 [mol/l])
Description: Bub1-inhibitory activity of compounds of the present invention was quantified employing the Bub1 TR-FRET assay as described in the following paragraphs.
N-terminally His6-tagged recombinant catalytic domain of human Bub1 (amino acids 704-1085), expressed in insect cells (Hi5) and purified by Ni-NTA affinity chromatography and subsequent size exclusion chromatography, was used as enzyme. As substrate for the kinase reaction the biotinylated peptide biotin-Ahx-VLLPKKSFAEPG (C-terminus in amid form) was used which can be purchased e.g. form the company Biosyntan (Berlin, Germany).
For the assay 50 nl of a 100 fold concentrated solution of the test compound in DMSO was pipetted into a black low volume 384 well microtiter plate (Greiner Bio-One, Frickenhausen, Germany), 2 μl of a solution of Bub1 in aqueous assay buffer [50 mM Tris/HCl pH 7.5, 10 mM magnesium chloride (MgCl2), 200 mM potassium chloride (KCl), 1.0 mM dithiothreitol (DTT), 0.1 mM sodium ortho-vanadate, 1% (v/v) glycerol, 0.01% (w/v) bovine serum albumine (BSA), 0.005% (v/v) Trition X-100 (Sigma), 1× Complete EDTA-free protease inhibitor mixture (Roche)] were added and the mixture was incubated for 15 min at 22° C. to allow pre-binding of the test compounds to the enzyme before the start of the kinase reaction. Then the kinase reaction was started by the addition of 3 μl of a solution of adenosine-tri-phosphate (ATP, 16.7 μM=>final conc. in the 5 μl assay volume is 10 μM) and substrate (1.67 μM=>final conc. in the 5 μl assay volume is 1 μM) in assay buffer and the resulting mixture was incubated for a reaction time of 60 min at 22° C. The concentration of Bub1 was adjusted depending of the activity of the enzyme lot and was chosen appropriate to have the assay in the linear range, typical concentrations were in the range of 200 ng/ml. The reaction was stopped by the addition of 5 μl of a solution of TR-FRET detection reagents (0.2 μM streptavidine-XL665 [Cisbio Bioassays, Codolet, France] and 1 nM anti-phosho-Serine antibody [Merck Millipore, cat. #35-001] and 0.4 nM LANCE EU-W1024 labeled anti-mouse IgG antibody [Perkin-Elmer, product no. AD0077, as an alternative a Terbium-cryptate-labeled anti-mouse IgG antibody from Cisbio Bioassays can be used]) in an aqueous EDTA-solution (50 mM EDTA, 0.2% (w/v) bovine serum albumin in 100 mM HEPES pH 7.5).
The resulting mixture was incubated 1 h at 22° C. to allow the formation of complex between the phosphorylated biotinylated peptide and the detection reagents. Subsequently the amount of phosphorylated substrate was evaluated by measurement of the resonance energy transfer from the Eu-chelate to the streptavidine-XL. Therefore, the fluorescence emissions at 620 nm and 665 nm after excitation at 350 nm was measured in a TR-FRET reader, e.g. a Rubystar or Pherastar (both from BMG Labtechnologies, Offenburg, Germany) or a Viewlux (Perkin-Elmer). The ratio of the emissions at 665 nm and at […] was taken as the measure for the amount of phosphorylated substrate. The data were normalised (enzyme reaction without inhibitor=0% inhibition, all other assay components but no enzyme=100% inhibition).

human kinase Mps-1, sequence (P33981 whole entry): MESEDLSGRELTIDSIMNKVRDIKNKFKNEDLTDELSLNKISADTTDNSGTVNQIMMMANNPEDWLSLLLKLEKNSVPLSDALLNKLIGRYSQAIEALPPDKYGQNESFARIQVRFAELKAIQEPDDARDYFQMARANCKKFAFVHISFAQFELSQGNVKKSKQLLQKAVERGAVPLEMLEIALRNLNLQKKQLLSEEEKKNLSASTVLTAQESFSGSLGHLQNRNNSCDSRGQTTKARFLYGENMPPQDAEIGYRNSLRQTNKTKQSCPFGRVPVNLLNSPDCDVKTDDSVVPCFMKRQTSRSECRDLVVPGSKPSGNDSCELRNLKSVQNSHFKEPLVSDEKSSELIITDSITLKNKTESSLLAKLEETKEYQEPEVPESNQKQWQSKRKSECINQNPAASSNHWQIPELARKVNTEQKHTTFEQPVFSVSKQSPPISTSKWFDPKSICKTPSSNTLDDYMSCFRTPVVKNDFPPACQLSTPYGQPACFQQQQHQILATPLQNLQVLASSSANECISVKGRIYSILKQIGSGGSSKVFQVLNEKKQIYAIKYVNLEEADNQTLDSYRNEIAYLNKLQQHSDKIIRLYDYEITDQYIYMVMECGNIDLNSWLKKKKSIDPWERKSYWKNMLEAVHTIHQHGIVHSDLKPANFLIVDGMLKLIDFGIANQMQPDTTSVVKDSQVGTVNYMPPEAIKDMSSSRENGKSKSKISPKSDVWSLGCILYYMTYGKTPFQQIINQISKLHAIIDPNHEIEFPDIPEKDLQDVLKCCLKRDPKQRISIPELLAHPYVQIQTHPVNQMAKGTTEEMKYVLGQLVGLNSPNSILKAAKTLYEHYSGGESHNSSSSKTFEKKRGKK
human Bub1, sequence (O43683 704-1085): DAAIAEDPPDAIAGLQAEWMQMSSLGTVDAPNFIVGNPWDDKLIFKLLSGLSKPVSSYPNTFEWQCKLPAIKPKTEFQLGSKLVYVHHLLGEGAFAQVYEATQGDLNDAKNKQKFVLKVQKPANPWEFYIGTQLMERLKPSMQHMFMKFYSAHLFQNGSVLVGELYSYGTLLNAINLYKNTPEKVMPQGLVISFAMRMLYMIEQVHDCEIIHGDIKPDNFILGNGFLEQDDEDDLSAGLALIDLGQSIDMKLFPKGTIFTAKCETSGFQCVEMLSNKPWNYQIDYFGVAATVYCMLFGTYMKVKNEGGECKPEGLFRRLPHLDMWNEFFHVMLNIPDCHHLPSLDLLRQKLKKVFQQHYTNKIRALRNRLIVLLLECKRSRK

| SMILES | IC50 (human kinase Mps-1) | IC50 (human Bub1) |
| --- | --- | --- |
| COc1ccc(NC(=O)c2c(C)nsc2Nc2cnc3ccc(F)cc3n2)cn1 [Example 44, 5-[(7-Fluoroquinoxalin-2-yl)amino]-N-(6-methoxypyridin-3-yl)-3-methyl-1,2-thiazole-4-carboxamide] | > 20 µM | > 20 µM |
| COc1ccc(NC(=O)c2c(C)nsc2Nc2cnc3cc(C(F)(F)F)ccc3n2)cn1 [Example 45, N-(6-Methoxypyridin-3-yl)-3-methyl-5-{[6-(trifluoromethyl)quinoxalin-2-yl]amino}-1,2-thiazole-4-carboxamide] | > 20 µM | > 20 µM |
| Cc1nsc(Nc2cnc3cc(F)ccc3n2)c1C(=O)Nc1ccc(F)c(F)c1 [Example 46, N-(3,4-Difluorophenyl)-5-[(6-fluoroquinoxalin-2-yl)amino]-3-methyl-1,2-thiazole-4-carboxamide] | > 20 µM | > 20 µM |
| COc1ccc(NC(=O)c2c(C)nsc2Nc2nc3c(C(F)(F)F)cccc3s2)cc1F [Example 47, N-(3-Fluoro-4-methoxyphenyl)-3-methyl-5-{[4-(trifluoromethyl)-1,3-benzothiazol-2-yl]amino}-1,2-thiazole-4-carboxamide] | > 20 µM | > 20 µM |
| COc1ccc(NC(=O)c2c(C)nsc2Nc2nc3c(C(F)(F)F)cccc3s2)cn1 [Example 48, N-(6-Methoxypyridin-3-yl)-3-methyl-5-{[4-(trifluoromethyl)-1,3-benzothiazol-2-yl]-amino}-1,2-thiazole-4-carboxamide] | > 20 µM | > 20 µM |
| Cc1nsc(Nc2ncc(C(=O)N(C)C)s2)c1C(=O)Nc1ccc(F)c(F)c1 [Example 49, N-(3,4-Difluorophenyl)-5-{[5-(dimethylcarbamoyl)-1,3-thiazol-2-yl]amino}-3-methyl-1,2-thiazole-4-carboxamide] | > 20 µM | > 20 µM |
| Cc1nsc(Nc2cnc3ccccc3n2)c1C(=O)Nc1ccc(F)c(F)c1 [Example 50, N-(3,4-Difluorophenyl)-3-methyl-5-(quinoxalin-2-ylamino)-1,2-thiazole-4-carboxamide] | > 20 µM | > 20 µM |
| Cc1nsc(Nc2nc3c(C(F)(F)F)cccc3s2)c1C(=O)Nc1ccc(F)c(F)c1 [Example 51, N-(3,4-Difluorophenyl)-3-methyl-5-{[4-(trifluoromethyl)-1,3-benzothiazol-2-yl]-amino}-1,2-thiazole-4-carboxamide] | > 20 µM | > 20 µM |
| Cc1nsc(Nc2ccc(C#N)cn2)c1C(=O)Nc1ccc(Cl)c(F)c1 [Example 52, N-(4-Chloro-3-fluorophenyl)-5-[(5-cyanopyridin-2-yl)amino]-3-methyl-1,2-thiazole-4-carboxamide] | > 20 µM | > 20 µM |
| Cc1nsc(Nc2nc3c(C(F)(F)F)cccc3s2)c1C(=O)Nc1ccc(Cl)c(F)c1 [Example 53, N-(4-Chloro-3-fluorophenyl)-3-methyl-5-{[4-(trifluoromethyl)-1,3-benzothiazol-2-yl]amino}-1,2-thiazole-4-carboxamide] | > 20 µM | > 20 µM |
| Cc1nsc(Nc2cc(C#N)ccn2)c1C(=O)Nc1ccc(Cl)c(F)c1 [Example 54, N-(4-Chloro-3-fluorophenyl)-5-[(4-cyanopyridin-2-yl)amino]-3-methyl-1,2-thiazole-4-carboxamide] | > 20 µM | > 20 µM |
| CCOC(=O)c1cnn2ccc(Nc3snc(C)c3C(=O)Nc3ccc(F)c(F)c3)nc12 [Example 55, Ethyl 5-({4-[(3,4-difluorophenyl)carbamoyl]-3-methyl-1,2-thiazol-5-yl}amino)-pyrazolo[1,5-a]pyrimidine-3-carboxylate] | > 20 µM | > 20 µM |
| Cc1nsc(Nc2cnccn2)c1C(=O)Nc1ccc(Cl)c(F)c1 [Example 56, N-(4-Chloro-3-fluorophenyl)-3-methyl-5-(pyrazin-2-ylamino)-1,2-thiazole-4-carboxamide] | > 20 µM | > 20 µM |
| Cc1nsc(Nc2ccn3nccc3n2)c1C(=O)Nc1ccc(F)c(F)c1 [Example 57, N-(3,4-Difluorophenyl)-3-methyl-5-(pyrazolo[1,5-a]pyrimidin-5-ylamino)-1,2-thiazole-4-carboxamide] | 18 µM | > 20 µM |
| CCOC(=O)c1cnc(Nc2snc(C)c2C(=O)Nc2ccc(F)c(F)c2)o1 [Example 96, Ethyl 2-({4-[(3,4-difluorophenyl)carbamoyl]-3-methyl-1,2-thiazol-5-yl}amino)-1,3-oxazole-5-carboxylate] | > 20 µM | > 20 µM |
| COC(=O)c1cnc(Nc2snc(C)c2C(=O)Nc2ccc(F)c(F)c2)o1 [Example 97, Methyl 2-({4-[(3,4-difluoro-phenyl)carbamoyl]-3-methyl-1,2-thiazol-5-yl}amino)-1,3-oxazole-5-carboxylate] | > 20 µM | > 20 µM |
| CCOC(=O)c1coc(Nc2snc(C)c2C(=O)Nc2ccc(F)c(F)c2)n1 [Example 98, Ethyl 2-({4-[(3,4-difluoro-phenyl)carbamoyl]-3-methyl-1,2-thiazol-5-yl}amino)-1,3-oxazole-4-carboxylate] | 18 µM | > 20 µM |
| CCNC(=O)c1csc(Nc2snc(C)c2C(=O)Nc2ccc(F)c(F)c2)n1 [Example 99, N-(3,4-Difluorophenyl)-5-{[4-(ethylcarbamoyl)-1,3-thiazol-2-yl]amino}-3-methyl-1,2-thiazole-4-carboxamide] | > 20 µM | > 20 µM |
